Calls of active or inactive are those of the source.
Columns and labels:
Wee1-like protein kinase = Wee1-like protein kinase (Homo sapiens, UniProt P30291); test: Dose Response Cell-based Assay for Inhibitors of Wee1 Degradation. [Related pubchem assays: 1410, 1321 ]; assay type: functional
[1] = molecular target: T1, Heat shock factor protein 1 (Mus musculus, UniProt P38532); test: enhancement of HSF1-driven luciferase signal – cell-based, NIH3T3, luminescence, dose retest, confirmation (AID 435004); assay type: functional;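 further: stress induced by proteasome inhibitor MG132 added 30 min after compound; luciferase reporter driven by HSF1 response element in NIH3T3 cells; actives raise luminescence as potentiators of the MG132 stress response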
T1 sequence (P38532 whole entry): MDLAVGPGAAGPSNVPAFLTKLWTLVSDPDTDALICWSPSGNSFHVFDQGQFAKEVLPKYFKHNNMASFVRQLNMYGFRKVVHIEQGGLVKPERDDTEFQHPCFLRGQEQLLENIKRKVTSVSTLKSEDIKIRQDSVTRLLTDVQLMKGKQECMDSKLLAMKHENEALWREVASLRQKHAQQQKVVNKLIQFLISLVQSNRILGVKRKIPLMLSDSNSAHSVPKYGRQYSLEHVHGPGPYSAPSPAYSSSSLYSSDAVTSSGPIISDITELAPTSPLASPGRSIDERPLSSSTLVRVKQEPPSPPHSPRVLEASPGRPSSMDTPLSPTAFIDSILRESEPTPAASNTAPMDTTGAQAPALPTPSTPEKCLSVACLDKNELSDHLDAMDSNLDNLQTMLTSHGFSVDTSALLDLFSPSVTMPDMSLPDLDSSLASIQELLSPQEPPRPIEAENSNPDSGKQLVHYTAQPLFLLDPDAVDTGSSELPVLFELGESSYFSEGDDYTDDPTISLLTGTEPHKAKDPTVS

[2] = molecular target: FAD-linked sulfhydryl oxidase ALR (Homo sapiens, UniProt P55789); test: ALR-catalysed DTT oxidation blockers – biochemical, H2O2 detection, luminescence, cherry-pick, dose response (AID 493248)
[3] = molecular target: G2/mitotic-specific cyclin-B1 (Homo sapiens, UniProt P14635); test: Counterscreen assay for inhibitors of Wee1 degradation: dose response cell-based assay to identify inhibitors of cyclin B degradation. [Related pubchem assays: 1410, 1321 ]; assay type: functional
[4] = molecular target: Dual specificity protein phosphatase 3 (Homo sapiens, UniProt P51452); test: inhibition constants for human DUSP3 – biochemical, colorimetric, SAR follow-up (AID 2004)
[5] = CCR5-tropic HIV-1 fusion blockers – cell-based, CCR5-tropic Env, dose response (AID 2279); assay type: functional
[6] = molecular target: T2, Tyrosine-protein phosphatase non-receptor type 7 (Homo sapiens, UniProt P35236); assay type: functional
T2 sequence (P35236 whole entry): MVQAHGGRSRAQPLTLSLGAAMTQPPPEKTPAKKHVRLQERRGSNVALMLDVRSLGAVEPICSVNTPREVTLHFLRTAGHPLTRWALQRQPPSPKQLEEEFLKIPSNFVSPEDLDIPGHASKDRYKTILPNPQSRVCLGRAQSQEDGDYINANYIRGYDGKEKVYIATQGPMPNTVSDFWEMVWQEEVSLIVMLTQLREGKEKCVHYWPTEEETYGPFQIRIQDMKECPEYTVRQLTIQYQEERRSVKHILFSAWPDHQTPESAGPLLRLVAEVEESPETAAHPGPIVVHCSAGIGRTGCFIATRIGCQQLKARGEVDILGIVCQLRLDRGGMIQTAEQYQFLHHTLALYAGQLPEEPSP

[7] = molecular target: Glyceraldehyde-3-phosphate dehydrogenase (Homo sapiens, UniProt P04406)
[8] = molecular target: T3, Dual specificity protein phosphatase 6 (Rattus norvegicus, UniProt Q64346); assay type: functional
T3 sequence (Q64346 whole entry): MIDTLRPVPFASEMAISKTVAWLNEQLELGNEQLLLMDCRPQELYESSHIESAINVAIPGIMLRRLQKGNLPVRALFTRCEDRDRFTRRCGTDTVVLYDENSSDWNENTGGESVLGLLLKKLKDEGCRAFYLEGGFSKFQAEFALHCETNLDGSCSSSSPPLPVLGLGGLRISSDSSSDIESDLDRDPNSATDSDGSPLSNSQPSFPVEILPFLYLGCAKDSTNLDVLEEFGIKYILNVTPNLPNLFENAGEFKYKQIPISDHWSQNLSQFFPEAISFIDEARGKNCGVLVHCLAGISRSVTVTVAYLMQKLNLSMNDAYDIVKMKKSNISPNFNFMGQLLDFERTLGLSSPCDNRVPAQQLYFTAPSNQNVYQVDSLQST

[9] = molecular target: Heat shock cognate 71 kDa protein (Homo sapiens, UniProt P11142); test: In Vitro Hsc70 Dose Response Fluorescence Polarization Assay. [Related pubchem assays: 1072 ]
[10] = molecular target: T3, Dual specificity protein phosphatase 6
[11] = molecular target: Heat shock 70 kDa protein 1A (Homo sapiens, UniProt P0DMV8); test: inhibition of Hsp70 binding activity – biochemical, fluorescence polarization, SAR follow-up (AID 1072)
[12] = molecular target: Luciferin 4-monooxygenase (Photinus pyralis, UniProt P08659); test: Counter Screen for Luciferase-based Assay Positives. [Related pubchem assays: 620, 618, 411 ]
cells = assay type: functional
HT-1080 = test: HT1080 cell viability loss – fluorescence readout (AID 620); assay type: functional, cell-based; conditions: Homo sapiens
[13] = molecular target: Mothers against decapentaplegic homolog 3 (Homo sapiens, UniProt P84022); test: blockers of Smad3 complex formation in lysate – cell lysate, secondary confirmation, chemiluminescent ELISA, HEK293 lysate, dose response (AID 1058); assay type: functional
Cytochrome P450 2C9 = Cytochrome P450 2C9 (Homo sapiens, UniProt P11712); conditions: Potency
BJ [14] = test: cells; assay type: functional, cell-based; conditions: Homo sapiens
BJ [15] = test: BJ-TERT fibroblast viability loss – cell-based, RAS-independent, luminescence, dose response (AID 1933); assay type: functional; conditions: Homo sapiens
[16] = molecular target: T4, Kappa-type opioid receptor (Homo sapiens, UniProt P41145); assay type: functional
[17] = molecular target: T4, Kappa-type opioid receptor; assay type: functional; remark: listed apart in the source
[18] = Counterscreen for IDE inhibitors: Luminescence-based cell-based high throughput dose response assay to identify compounds that are cytotoxic to HEK cells. [Related pubchem assays: 434962 (Primary screen (IDE inhibitors in singlicate)), 449730 (Counterscreen (Cytotoxicity in triplicate)), 435028 (Confirmation (IDE inhibitors in triplicate)) …; assay type: functional; conditions: HEK293
Beta-galactosidase = Beta-galactosidase (Escherichia coli, UniProt Q8VNN2); assay type: functional
[19] = DRD fibroblast viability loss – cell-based, non-viral oncogenic, luminescence, dose response (AID 1934); assay type: functional; conditions: Homo sapiens
BJ [20] = test: BJ-TERT-LT-ST fibroblast viability loss – cell-based, RAS-independent, luminescence, dose response (AID 1935); assay type: functional; conditions: Homo sapiens;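 further: BJ fibroblasts immortalized with TERT plus LT and ST oncogenes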
Insulin-degrading enzyme = molecular target: T5, Insulin-degrading enzyme (Homo sapiens, UniProt P14735); test: Dose Response: Fluorescence polarization-based cell-based high throughput dose response assay for inhibitors of insulin-degrading enzyme (IDE). [Related pubchem assays: 434962 (Primary screen (IDE inhibitors in singlicate)), 449730 (Counterscreen (Cytotoxicity in triplicate)), 435028 (Confirmation (IDE inhibitors in triplicate)), 434984 (Summary …; assay type: functional
T5 sequence (P14735 whole entry): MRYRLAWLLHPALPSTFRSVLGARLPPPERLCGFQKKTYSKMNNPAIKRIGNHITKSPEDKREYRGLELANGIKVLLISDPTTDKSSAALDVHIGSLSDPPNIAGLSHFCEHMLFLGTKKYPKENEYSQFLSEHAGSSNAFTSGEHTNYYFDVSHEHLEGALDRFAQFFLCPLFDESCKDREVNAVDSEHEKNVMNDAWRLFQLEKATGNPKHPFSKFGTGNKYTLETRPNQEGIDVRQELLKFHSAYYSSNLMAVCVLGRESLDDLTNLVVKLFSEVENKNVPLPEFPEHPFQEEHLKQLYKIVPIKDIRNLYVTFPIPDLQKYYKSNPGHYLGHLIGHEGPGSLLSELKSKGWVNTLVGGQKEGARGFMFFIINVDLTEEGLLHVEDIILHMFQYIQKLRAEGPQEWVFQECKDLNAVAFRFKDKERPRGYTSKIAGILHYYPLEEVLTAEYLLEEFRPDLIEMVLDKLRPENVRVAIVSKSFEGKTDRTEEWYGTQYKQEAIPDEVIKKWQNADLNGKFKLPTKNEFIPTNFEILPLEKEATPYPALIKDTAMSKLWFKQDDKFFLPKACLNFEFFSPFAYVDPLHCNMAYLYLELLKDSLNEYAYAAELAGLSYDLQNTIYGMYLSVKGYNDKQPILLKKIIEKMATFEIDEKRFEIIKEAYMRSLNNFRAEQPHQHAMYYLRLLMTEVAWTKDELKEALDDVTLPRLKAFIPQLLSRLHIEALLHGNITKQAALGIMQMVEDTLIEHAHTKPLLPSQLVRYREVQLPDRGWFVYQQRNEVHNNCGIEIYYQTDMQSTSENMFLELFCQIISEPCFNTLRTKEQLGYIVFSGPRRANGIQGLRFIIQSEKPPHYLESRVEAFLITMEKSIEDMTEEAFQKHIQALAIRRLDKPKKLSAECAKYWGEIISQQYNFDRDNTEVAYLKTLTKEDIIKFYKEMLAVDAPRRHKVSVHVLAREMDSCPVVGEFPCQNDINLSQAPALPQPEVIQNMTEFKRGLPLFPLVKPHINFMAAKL

[21] = molecular target: Melanin-concentrating hormone receptor 1 (Homo sapiens, UniProt Q99705); test: Late-stage fluorescence-based counterscreen for antagonists of the G-protein coupled receptor 7 (GPR7): cell-based dose response assay to identify antagonists of the melanin-concentrating hormone receptor 1 (MCHR1). [Related pubchem assays (depositor defined):AID1861, AID1880, AID1952, AID2148, AID2251, AID2257, AID485339]; assay type: functional;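 further: stimulated with 30 nM MCH peptide agonist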
[22] = molecular target: T6, Neuropeptide Y receptor type 2 (Homo sapiens, UniProt P49146); assay type: functional, cell-based;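 further: HEK293 cells expressing the receptor and a CNG channel; stimulus was NPY near EC95 followed by isoproterenol to raise cAMP; antagonist potency measured as restoring cAMP signal that NPY suppresses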
T6 sequence (P49146 whole entry): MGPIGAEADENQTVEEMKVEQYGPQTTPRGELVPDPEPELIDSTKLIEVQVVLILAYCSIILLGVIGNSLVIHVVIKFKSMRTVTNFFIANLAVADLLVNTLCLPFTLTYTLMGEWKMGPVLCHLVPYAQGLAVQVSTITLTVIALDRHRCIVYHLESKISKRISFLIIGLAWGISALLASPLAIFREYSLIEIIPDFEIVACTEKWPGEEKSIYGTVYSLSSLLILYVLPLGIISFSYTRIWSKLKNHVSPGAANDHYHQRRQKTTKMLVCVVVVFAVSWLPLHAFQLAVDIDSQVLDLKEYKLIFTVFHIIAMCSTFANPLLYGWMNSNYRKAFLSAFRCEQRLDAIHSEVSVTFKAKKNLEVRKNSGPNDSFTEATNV

[23] = molecular target: T7, Neuropeptide Y receptor type 1 (Homo sapiens, UniProt P25929); assay type: functional;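 further: HEK293 cells with a CNG channel challenged with NPY then isoproterenol; potency as antagonist that reverses NPY suppression of cAMP signal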
T7 sequence (P25929 whole entry): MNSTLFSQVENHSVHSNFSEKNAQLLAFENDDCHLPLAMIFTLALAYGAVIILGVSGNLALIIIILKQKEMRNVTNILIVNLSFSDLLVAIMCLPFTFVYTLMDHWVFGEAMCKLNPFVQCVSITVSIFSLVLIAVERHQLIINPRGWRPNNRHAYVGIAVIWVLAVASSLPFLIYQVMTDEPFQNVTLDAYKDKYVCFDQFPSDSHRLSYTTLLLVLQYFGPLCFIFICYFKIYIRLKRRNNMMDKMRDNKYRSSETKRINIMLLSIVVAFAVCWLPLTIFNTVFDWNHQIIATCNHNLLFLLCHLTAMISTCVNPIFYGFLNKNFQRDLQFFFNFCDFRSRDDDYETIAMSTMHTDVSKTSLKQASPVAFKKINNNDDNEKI

T4 sequence (P41145 whole entry): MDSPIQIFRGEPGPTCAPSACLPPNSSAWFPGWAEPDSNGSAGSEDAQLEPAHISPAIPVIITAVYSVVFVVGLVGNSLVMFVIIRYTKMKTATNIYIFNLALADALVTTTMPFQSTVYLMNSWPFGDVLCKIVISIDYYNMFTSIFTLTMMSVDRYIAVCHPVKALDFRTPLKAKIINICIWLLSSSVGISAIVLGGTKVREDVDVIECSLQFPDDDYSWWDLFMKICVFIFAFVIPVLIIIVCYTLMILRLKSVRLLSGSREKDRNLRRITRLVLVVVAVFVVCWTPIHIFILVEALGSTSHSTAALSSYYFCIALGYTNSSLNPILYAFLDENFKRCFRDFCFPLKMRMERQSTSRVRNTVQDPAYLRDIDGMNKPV
Sequence of Melanin-concentrating hormone receptor 1 (Q99705 whole entry): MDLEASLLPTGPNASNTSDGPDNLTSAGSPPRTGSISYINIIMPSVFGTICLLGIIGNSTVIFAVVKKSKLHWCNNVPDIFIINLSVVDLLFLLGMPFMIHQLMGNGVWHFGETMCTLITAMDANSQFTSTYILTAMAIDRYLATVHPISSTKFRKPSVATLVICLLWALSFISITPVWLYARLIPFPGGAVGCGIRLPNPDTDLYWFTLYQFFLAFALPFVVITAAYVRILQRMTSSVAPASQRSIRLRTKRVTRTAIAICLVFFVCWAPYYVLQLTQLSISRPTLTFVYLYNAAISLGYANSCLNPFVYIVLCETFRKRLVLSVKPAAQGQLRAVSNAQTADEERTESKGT
Sequence of Cytochrome P450 2C9 (P11712 whole entry): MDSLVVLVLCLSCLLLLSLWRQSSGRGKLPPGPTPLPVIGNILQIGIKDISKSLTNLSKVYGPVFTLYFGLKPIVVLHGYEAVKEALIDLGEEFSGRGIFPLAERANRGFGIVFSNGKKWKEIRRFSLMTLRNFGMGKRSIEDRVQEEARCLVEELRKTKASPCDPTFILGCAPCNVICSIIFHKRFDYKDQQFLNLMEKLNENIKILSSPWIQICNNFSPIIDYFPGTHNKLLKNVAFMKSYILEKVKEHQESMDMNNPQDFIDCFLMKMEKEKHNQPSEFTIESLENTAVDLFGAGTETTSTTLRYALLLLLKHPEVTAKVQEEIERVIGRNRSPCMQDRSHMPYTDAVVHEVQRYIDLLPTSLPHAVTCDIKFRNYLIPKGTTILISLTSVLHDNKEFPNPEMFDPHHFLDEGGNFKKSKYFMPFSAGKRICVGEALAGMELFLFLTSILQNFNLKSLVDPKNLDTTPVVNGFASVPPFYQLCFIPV
Sequence of Glyceraldehyde-3-phosphate dehydrogenase (P04406 whole entry): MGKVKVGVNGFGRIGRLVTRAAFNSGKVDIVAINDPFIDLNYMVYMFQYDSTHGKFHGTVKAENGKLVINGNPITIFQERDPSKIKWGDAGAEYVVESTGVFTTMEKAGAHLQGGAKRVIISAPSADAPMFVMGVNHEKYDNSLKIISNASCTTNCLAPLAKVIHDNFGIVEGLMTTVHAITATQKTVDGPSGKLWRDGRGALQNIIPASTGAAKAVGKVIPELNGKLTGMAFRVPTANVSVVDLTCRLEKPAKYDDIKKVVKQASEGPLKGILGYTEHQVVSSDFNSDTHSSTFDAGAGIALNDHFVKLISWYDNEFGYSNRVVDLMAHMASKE
Sequence of Wee1-like protein kinase (P30291 whole entry): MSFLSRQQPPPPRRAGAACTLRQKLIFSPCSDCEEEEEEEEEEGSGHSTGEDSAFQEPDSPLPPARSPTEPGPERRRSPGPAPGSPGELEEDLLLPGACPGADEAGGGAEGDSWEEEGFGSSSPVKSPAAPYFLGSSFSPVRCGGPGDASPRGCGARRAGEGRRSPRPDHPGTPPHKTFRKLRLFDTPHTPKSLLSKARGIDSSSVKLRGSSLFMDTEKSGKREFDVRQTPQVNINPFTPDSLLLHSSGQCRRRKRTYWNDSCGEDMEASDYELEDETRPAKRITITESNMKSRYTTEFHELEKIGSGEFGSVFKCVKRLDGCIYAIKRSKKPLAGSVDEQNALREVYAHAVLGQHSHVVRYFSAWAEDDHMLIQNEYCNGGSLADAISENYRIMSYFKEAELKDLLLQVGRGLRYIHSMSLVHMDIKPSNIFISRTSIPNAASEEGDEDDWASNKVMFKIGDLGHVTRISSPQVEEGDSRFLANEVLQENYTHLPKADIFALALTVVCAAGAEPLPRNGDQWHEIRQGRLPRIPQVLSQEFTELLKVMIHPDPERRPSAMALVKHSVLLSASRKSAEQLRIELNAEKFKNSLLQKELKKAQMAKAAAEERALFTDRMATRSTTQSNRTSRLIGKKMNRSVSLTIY
Sequence of FAD-linked sulfhydryl oxidase ALR (P55789 whole entry): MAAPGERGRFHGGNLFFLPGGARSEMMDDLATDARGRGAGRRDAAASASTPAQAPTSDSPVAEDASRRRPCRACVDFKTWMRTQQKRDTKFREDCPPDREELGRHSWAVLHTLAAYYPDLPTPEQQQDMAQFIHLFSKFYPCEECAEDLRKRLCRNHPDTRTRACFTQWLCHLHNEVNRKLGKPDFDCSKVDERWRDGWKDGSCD
Sequence of Luciferin 4-monooxygenase (P08659 whole entry): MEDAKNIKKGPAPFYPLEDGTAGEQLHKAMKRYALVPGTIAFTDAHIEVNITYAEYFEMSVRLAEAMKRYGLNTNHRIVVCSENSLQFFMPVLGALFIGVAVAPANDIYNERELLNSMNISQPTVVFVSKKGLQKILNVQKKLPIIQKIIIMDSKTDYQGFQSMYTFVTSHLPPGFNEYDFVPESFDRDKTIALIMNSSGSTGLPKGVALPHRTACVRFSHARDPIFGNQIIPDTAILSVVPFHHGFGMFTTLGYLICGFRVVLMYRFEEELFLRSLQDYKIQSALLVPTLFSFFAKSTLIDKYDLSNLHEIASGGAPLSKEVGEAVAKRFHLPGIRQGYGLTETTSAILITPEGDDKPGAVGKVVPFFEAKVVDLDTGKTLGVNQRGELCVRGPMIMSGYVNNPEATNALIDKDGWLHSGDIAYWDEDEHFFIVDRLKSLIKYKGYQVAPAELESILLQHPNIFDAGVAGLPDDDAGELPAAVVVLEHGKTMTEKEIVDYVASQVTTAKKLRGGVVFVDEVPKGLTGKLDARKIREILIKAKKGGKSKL
Sequence of Dual specificity protein phosphatase 3 (P51452 whole entry, the tested form may be a part): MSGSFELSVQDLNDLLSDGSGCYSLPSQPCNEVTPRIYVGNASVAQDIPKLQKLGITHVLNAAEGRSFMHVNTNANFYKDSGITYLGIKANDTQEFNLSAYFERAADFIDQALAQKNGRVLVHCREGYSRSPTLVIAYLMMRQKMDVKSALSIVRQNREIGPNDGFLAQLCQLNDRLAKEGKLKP
Sequence of Heat shock 70 kDa protein 1A (P0DMV8 whole entry): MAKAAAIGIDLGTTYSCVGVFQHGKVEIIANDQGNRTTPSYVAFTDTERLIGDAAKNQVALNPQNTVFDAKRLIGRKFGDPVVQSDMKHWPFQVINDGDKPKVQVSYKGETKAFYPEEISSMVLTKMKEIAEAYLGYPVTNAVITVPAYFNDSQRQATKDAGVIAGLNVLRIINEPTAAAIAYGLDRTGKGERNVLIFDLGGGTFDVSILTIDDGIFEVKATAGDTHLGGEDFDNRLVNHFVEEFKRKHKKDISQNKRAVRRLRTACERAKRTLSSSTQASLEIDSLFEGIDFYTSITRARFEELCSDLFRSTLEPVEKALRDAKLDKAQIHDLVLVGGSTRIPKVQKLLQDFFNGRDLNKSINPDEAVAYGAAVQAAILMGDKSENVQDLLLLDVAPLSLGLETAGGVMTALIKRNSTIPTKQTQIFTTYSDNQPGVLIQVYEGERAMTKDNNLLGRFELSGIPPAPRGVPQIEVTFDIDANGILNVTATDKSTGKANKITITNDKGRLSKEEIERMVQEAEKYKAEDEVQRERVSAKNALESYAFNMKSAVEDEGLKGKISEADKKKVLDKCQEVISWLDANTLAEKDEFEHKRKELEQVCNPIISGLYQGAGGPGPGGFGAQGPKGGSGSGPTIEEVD
Sequence of Mothers against decapentaplegic homolog 3 (P84022 whole entry): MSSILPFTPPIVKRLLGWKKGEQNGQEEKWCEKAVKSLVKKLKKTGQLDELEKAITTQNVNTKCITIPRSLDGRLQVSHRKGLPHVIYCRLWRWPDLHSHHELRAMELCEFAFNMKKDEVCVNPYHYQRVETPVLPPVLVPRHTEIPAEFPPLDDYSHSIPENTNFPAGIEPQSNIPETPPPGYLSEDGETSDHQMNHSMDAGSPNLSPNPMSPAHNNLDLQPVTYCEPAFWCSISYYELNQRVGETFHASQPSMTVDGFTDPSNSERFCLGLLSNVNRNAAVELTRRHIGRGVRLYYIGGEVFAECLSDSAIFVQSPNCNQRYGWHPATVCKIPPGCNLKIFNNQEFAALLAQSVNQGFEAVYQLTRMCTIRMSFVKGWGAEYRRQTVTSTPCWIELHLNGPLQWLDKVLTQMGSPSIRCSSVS
Sequence of Heat shock cognate 71 kDa protein (P11142 whole entry): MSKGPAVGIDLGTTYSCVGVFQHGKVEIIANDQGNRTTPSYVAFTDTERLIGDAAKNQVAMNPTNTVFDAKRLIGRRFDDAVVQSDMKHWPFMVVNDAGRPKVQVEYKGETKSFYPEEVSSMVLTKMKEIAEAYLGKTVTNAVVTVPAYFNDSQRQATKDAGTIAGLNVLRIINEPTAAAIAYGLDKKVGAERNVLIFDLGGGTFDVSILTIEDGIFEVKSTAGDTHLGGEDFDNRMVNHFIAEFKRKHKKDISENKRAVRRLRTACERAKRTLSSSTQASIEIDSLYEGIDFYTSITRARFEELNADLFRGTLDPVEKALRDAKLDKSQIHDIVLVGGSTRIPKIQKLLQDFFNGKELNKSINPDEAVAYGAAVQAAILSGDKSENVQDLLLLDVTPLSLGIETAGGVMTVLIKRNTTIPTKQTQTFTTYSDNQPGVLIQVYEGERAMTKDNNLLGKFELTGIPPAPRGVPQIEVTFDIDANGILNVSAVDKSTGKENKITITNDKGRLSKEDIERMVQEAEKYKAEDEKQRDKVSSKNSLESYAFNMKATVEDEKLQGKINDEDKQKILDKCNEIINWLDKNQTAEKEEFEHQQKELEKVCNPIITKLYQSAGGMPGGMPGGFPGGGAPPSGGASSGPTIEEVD

Cc1ccc2[nH]c(NCc3ccccc3)nc2c1
EC50 (Wee1-like protein kinase): > 49.7 µM (not active)
EC50 [1]: > 260 µM (inactive)
AC50 [2]: 6.87 µM (active)
EC50 [3]: > 49.7 µM (not active)

Cn1c(=O)c2c(nc(S)n2Cc2ccccc2Cl)n(C)c1=O
Ki [4]: 25.4 µM (inactive)

Cc1ccc(-c2nc(SCC(=O)Nc3ccccc3OC(F)F)c3c(C)c(C(=O)O)sc3n2)cc1
IC50 [5]: 18.8 µM (active)

Cc1cc(C)c2c(c1)C1C=CCC1C(C(=O)O)N2 (centres undefined)
IC50 [6]: 70.2 µM (active)
IC50 [7]: > 100 µM (not active)
IC50 [8]: > 100 µM (inactive)
IC50 [9]: > 100 µM (not active)
IC50 [10]: > 100 µM (inactive)
IC50 [11]: 24.7 µM (active)

Cc1ccc(C(=O)COC(=O)c2cccs2)cc1
EC50 [12]: 0.53 µM (active)
IC50 (cells): 24.3 µM (active)
EC50 (HT-1080): > 50 µM (not active)

COc1cc(C(c2cc3c(cc2O)OCO3)N2CCCC2)cc(OC)c1OC (centres undefined)
IC50 [13]: > 40 µM (not active)

CCOC(=O)OCC1OC(C#Cc2ccccc2)C=CC1OC(=O)OCC (centres undefined)
AC50 (Cytochrome P450 2C9): 0.0794 µM (inconclusive)

CCN1C(=O)/C(=C/C=C2/Sc3ccccc3N2CCO)SC1=S
EC50 (BJ [14]): 30.4 µM (active)
EC50 (BJ [15]): 28.7 µM (active)
IC50 [16]: 13.2 µM (active)
IC50 [17]: 27.6 µM
IC50 [18]: 12.1 µM (not active)
EC50 (Beta-galactosidase): 16.7 µM (active)
EC50 [19]: 50.2 µM (active)
EC50 (BJ [20]): > 150 µM (not active)
IC50 (Insulin-degrading enzyme): > 56 µM (not active)

COc1ccc(Oc2c(Cl)cnn(-c3cccc(C)c3C)c2=O)cc1
IC50 [21]: 12.5 µM (inactive)

OC[C@H]1O[C@@H](n2cnc3c(Nc4ccccc4)ncnc32)[C@H](O)[C@@H]1O [N6-PHENYLADENOSINE]
IC50 [22]: 4.73 µM (active)
IC50 [23]: 7.83 µM (active)
